# Experimental data as given in ChEMBL document CHEMBL5512657, “Design, synthesis and evaluation of a pyrazolo[3,4-d]pyrimidine derivative as a novel and potent TGFβ1R1 inhibitor” (Eur J Med Chem, 2024).
# Legend:
# TGF-beta receptor type-1 [1] = target: T1, TGF-beta receptor type-1 (Mus musculus, UniProt Q64729); assay: Inhibition of ALK5 signaling in mouse NIH3T3 cells transfected with (CAGA)12-luciferase reporter incubated for 18 hrs in presence of TGF-beta1 by dual-luciferase reporter assay; format: cell-based
# T1 sequence (Q64729 whole entry): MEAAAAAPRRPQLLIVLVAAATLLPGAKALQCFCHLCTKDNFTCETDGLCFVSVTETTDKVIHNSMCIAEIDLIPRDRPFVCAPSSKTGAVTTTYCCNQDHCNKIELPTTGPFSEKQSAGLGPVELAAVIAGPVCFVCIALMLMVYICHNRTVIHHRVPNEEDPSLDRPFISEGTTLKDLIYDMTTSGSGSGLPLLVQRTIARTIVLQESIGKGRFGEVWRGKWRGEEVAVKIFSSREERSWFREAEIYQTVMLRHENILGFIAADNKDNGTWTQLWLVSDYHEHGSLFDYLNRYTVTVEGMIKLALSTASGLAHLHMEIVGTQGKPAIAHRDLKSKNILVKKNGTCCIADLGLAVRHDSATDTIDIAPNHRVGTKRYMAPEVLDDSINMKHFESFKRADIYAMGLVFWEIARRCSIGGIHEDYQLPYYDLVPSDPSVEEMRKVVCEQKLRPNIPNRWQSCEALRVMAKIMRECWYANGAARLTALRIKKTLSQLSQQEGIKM
# TGF-beta receptor type-1 [2] = target: T2, TGF-beta receptor type-1 (Homo sapiens, UniProt P36897); assay: Inhibition of ALK5 (unknown origin) incubated for 2 hrs in presence of ATP by ADP-Glo reagent based luminescence plate reader analysis
# T2 sequence (P36897 whole entry): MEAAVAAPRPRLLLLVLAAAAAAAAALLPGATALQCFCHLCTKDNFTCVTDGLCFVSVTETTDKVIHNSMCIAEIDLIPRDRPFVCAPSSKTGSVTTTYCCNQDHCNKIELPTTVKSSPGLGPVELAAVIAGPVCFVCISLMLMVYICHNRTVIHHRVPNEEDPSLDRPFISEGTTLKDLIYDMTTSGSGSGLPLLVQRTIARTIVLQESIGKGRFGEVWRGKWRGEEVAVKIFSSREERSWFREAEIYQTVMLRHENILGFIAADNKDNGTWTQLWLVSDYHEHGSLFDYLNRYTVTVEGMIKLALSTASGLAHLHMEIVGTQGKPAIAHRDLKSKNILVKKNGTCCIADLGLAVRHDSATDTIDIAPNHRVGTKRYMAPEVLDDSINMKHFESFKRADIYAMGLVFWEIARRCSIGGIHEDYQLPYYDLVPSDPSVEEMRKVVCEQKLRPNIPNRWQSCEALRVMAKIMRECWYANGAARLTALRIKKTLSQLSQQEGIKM
# in vitro [3] = settings: human, BEAS-2B cells
# MDA-MB-231 = assay: cells; settings: Homo sapiens, MDA-MB-231, 72 h
# in vitro [4] = settings: human, L02 cells
# MV4-11 = assay: cells; settings: Homo sapiens, MV4-11, 72 h
# in vitro [5] = settings: human, MCF-10A cells
# U-251 = assay: cells; settings: Homo sapiens, U-251, 72 h
# PANC-1 [6] = assay: cells; settings: Homo sapiens, PANC-1, 72 h
# Kasumi 1 = assay: cells; settings: Homo sapiens, Kasumi 1, 72 h
# 4T1 = assay: cells; settings: Mus musculus, 4T1, 72 h
# in vitro [7] = settings: human, HEK293T cells
# HepG2 = assay: cells; settings: Homo sapiens, HepG2, 72 h
# Panc02 [8] = assay: cells; settings: Mus musculus, Panc02, 72 h
# TGF-beta receptor type-1 [9] = target: T2, TGF-beta receptor type-1; assay: Inhibition of TGFbetaR1 (unknown origin)
# Panc02 [10] = assay: Antitumor activity against mouse Panc02 cells implanted in C57BL/6J mouse model assessed as tumor growth inhibition at 10 mg/kg, ip administered every other day for 24 days relative to control; format: functional; settings: Panc02, 576 h, time 24 day, read-out: TGI
# PANC-1 [11] = assay: Antitumor activity against human PANC-1 xenografted in […] mouse model assessed as tumor growth inhibition at 10 mg/kg, ip administered every other day for 24 days relative to control; format: functional; settings: PANC-1, 576 h, time 24 day, read-out: TGI
# [12] = target: Voltage-gated inwardly rectifying potassium channel KCNH2 (Homo sapiens, UniProt Q12809); assay: Inhibition of human ERG stably expressed in HEK293 cells by manual patch clamp method; format: toxicity, cell-based
# Voltage-gated inwardly rectifying potassium channel KCNH2, sequence (Q12809 whole entry): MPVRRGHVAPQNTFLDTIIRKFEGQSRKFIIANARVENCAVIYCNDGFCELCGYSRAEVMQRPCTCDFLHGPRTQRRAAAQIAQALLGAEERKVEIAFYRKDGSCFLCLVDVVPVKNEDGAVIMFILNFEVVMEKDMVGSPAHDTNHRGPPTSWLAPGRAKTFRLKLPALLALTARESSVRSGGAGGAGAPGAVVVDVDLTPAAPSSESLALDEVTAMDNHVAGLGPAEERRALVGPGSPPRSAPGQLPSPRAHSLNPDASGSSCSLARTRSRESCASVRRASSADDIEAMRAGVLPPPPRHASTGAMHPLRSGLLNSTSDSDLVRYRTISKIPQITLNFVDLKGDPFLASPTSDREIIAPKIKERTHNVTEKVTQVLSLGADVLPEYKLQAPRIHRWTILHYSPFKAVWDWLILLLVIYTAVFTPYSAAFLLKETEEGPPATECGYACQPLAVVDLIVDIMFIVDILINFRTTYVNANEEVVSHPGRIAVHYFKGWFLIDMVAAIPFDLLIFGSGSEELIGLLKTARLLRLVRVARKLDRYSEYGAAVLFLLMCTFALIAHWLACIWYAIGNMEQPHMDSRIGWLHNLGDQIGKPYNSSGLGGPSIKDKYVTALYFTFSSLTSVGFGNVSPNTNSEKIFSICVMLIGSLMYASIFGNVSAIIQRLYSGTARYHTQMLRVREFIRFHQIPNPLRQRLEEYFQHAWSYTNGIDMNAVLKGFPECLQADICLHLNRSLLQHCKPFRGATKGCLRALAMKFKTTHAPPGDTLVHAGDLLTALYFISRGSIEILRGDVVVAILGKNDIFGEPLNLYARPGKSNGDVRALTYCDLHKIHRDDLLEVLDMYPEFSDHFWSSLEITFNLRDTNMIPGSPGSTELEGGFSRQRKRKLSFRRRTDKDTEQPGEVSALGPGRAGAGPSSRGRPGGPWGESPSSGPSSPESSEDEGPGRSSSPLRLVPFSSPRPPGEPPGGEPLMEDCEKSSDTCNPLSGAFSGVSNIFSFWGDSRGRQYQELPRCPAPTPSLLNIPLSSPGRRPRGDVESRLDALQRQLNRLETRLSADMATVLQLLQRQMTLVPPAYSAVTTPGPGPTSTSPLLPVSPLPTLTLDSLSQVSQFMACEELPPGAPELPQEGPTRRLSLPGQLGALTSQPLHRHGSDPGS
EC50 (TGF-beta receptor type-1 [1]) [µM],SMILES,also measured
0.363,CC(C)(C)OC(=O)N1CCC(Cn2nc(-c3ccc4[nH]ccc4c3)c3c(N)ncnc32)C1 (centres undefined),IC50 (TGF-beta receptor type-1 [2]): 0.155 µM
0.302,CC(=O)N1CCC(CCn2nc(-c3ccc(N)cc3C)c3c(N)ncnc32)CC1,
0.0459,CCCS(=O)(=O)N1CCC(CCn2nc(-c3ccc4[nH]ccc4c3)c3c(N)ncnc32)CC1,
0.403,CC(=O)N1CCC(CCn2nc(-c3cc4cc[nH]c4cc3C)c3c(N)ncnc32)CC1,
0.303,Nc1ncnc2c1c(-c1ccc3[nH]ccc3c1)nn2CCC1CCN(S(=O)(=O)c2ccc(C(F)(F)F)cc2)CC1,
0.856,Nc1ncnc2c1c(-c1ccc3[nH]ccc3c1)nn2CCC1CCN(S(=O)(=O)c2ccccc2Cl)CC1,
0.848,Nc1ncnc2c1c(-c1ccc3[nH]ccc3c1)nn2CCC1CCN(S(=O)(=O)c2cccc(Cl)c2Cl)CC1,
> 1,Nc1ncnc2c1c(-c1ccc3[nH]ccc3c1)nn2CCC1CCN(C(=O)OCc2ccccc2)CC1,
0.525,Nc1ncnc2c1c(-c1ccc3[nH]ccc3c1)nn2-c1ccc2cc[nH]c2c1,
,Cc1cccc(-c2nn3c(c2-c2ccnc4ccc(C(N)=O)cc24)CCC3)n1 [GALUNISERTIB],CC50 at 72 h (in vitro [3]): 13 µM; CC50 (MDA-MB-231): > 20 µM; CC50 at 72 h (in vitro [4]): 17.4 µM; CC50 (MV4-11): > 20 µM; CC50 at 72 h (in vitro [5]): 19.9 µM; CC50 (U-251): 17 µM; CC50 (PANC-1 [6]): > 20 µM; CC50 (Kasumi 1): 3.12 µM; CC50 (4T1): > 20 µM; CC50 at 72 h (in vitro [7]): > 20 µM; CC50 (HepG2): 5.46 µM; CC50 (Panc02 [8]): > 20 µM
0.488,CC(C)(C)OC(=O)N1CCN(CCn2nc(-c3ccc4[nH]ccc4c3)c3c(N)ncnc32)CC1,
0.176,CCCCS(=O)(=O)N1CCC(CCn2nc(-c3ccc4[nH]ccc4c3)c3c(N)ncnc32)CC1,
0.665,COc1ccccc1C(=O)N1CCC(CCn2nc(-c3ccc4[nH]ccc4c3)c3c(N)ncnc32)CC1,
0.273,Nc1ncnc2c1c(-c1ccc3[nH]ccc3c1)nn2CCC1CCN(C(=O)c2ccccc2)CC1,
,Cc1cccc(-c2nc(C34CCC(C(N)=O)(CC3)CC4)[nH]c2-c2ccc3c(c2)OCO3)n1,IC50 (TGF-beta receptor type-1 [9]): 0.047 µM
0.283,CC(=O)N1CCC(CCn2nc(-c3ccc4c(ccn4C)c3)c3c(N)ncnc32)CC1,
0.295,CC(=O)N1CCC(CCn2nc(-c3ccc4[nH]ncc4c3)c3c(N)ncnc32)CC1,
> 1,N#Cc1ccc(S(=O)(=O)N2CCC(CCn3nc(-c4ccc5[nH]ccc5c4)c4c(N)ncnc43)CC2)cc1,
> 1,CC(=O)N1CCC(CCn2nc(-c3ccc4cc[nH]c4c3)c3c(N)ncnc32)CC1,
> 1,COc1ccc(S(=O)(=O)N2CCC(CCn3nc(-c4ccc5[nH]ccc5c4)c4c(N)ncnc43)CC2)c(OC)c1,
0.465,C#CCCCC(=O)N1CCC(CCn2nc(-c3ccc4[nH]ccc4c3)c3c(N)ncnc32)CC1,
0.689,CC(C)(C)OC(=O)N1CCCC(Cn2nc(-c3ccc4[nH]ccc4c3)c3c(N)ncnc32)C1 (centres undefined),
0.441,CC(C)(C)OC(=O)N1CCC(CCn2nc(-c3ccc4[nH]ccc4c3)c3c(N)ncnc32)CC1,
0.348,Cc1ccc(S(=O)(=O)N2CCC(CCn3nc(-c4ccc5[nH]ccc5c4)c4c(N)ncnc43)CC2)cc1,
0.607,Nc1ncnc2c1c(-c1ccc3[nH]ccc3c1)nn2CCC1CCN(S(=O)(=O)c2cccs2)CC1,
0.131,CC(C)S(=O)(=O)N1CCC(CCn2nc(-c3ccc4[nH]ccc4c3)c3c(N)ncnc32)CC1,
0.971,Nc1ncnc2c1c(-c1ccc3[nH]ccc3c1)nn2CCC1CCN(S(=O)(=O)c2ccc3ccccc3c2)CC1,

EC50 (TGF-beta receptor type-1 [1]) [µM],SMILES,also measured
> 1,CC(=O)N1CCC(CCn2nc(-c3ccc4ncccc4c3)c3c(N)ncnc32)CC1,
> 1,CC(=O)N1CCC(CCn2nc(-c3ccc4c(c3)OCO4)c3c(N)ncnc32)CC1,
> 1,Nc1ncnc2c1c(-c1ccc3[nH]ccc3c1)nn2CCC1CCN(S(=O)(=O)c2ccc(Cl)cc2Cl)CC1,
0.13,CC(=O)N1CCC(CCn2nc(-c3ccc4ncsc4c3)c3c(N)ncnc32)CC1,
0.75,CC(C)(C)OC(=O)N1CC(Cn2nc(-c3ccc4[nH]ccc4c3)c3c(N)ncnc32)C1,
> 1,Nc1ncnc2c1c(-c1ccc3[nH]ccc3c1)nn2CCC1CCN(S(=O)(=O)c2cc(F)cc(F)c2)CC1,
0.43,COc1cc(F)cc(-c2nn(CCC3CCN(C(C)=O)CC3)c3ncnc(N)c23)c1,
> 1,CC(=O)N1CCC(CCn2nc(-c3ccc4nccnc4c3)c3c(N)ncnc32)CC1,
1.32,Nc1ncnc2c1c(-c1ccc3[nH]ccc3c1)nn2CCC1CCN(S(=O)(=O)c2cccc(Cl)c2)CC1,
0.682,CC(=O)N1CCC(CCn2nc(-c3coc4ccccc34)c3c(N)ncnc32)CC1,
0.339,Nc1ncnc2c1c(-c1ccc3[nH]ccc3c1)nn2CCC1CCN(S(=O)(=O)c2ccccc2F)CC1,
0.132,COc1ccc(S(=O)(=O)N2CCC(CCn3nc(-c4ccc5[nH]ccc5c4)c4c(N)ncnc43)CC2)cc1,
> 1,CC(=O)Nc1cccc(-c2nn(CCC3CCN(C(C)=O)CC3)c3ncnc(N)c23)c1,
,Nc1ccn([C@@H]2O[C@H](CO)[C@@H](O)C2(F)F)c(=O)n1 [GEMCITABINE],inhibition in vivo at 10 mg/kg (Panc02 [10]): 92.1%; inhibition in vivo at 10 mg/kg (PANC-1 [11]): 82.2%
0.998,CC(C)(C)OC(=O)N1CCC(CCCn2nc(-c3ccc4[nH]ccc4c3)c3c(N)ncnc32)CC1,
0.105,Nc1ncnc2c1c(-c1ccc3[nH]ccc3c1)nn2CCC1CCN(S(=O)(=O)C2CC2)CC1,
0.105,CC(=O)N1CCC(CCn2nc(-c3ccc4[nH]c(C)cc4c3)c3c(N)ncnc32)CC1,
0.0908,CCS(=O)(=O)N1CCC(CCn2nc(-c3ccc4[nH]ccc4c3)c3c(N)ncnc32)CC1,
0.0296,CC(=O)N1CCC(CCn2nc(-c3ccc4[nH]ccc4c3)c3c(N)ncnc32)CC1,IC50 [12]: 11.7 µM
> 1,Nc1ncnc2c1c(-c1ccc3[nH]ccc3c1)nn2CCC1CCN(S(=O)(=O)c2cccnc2)CC1,
> 1,CC(C)(C)c1ccc(S(=O)(=O)N2CCC(CCn3nc(-c4ccc5[nH]ccc5c4)c4c(N)ncnc43)CC2)cc1,
0.374,CC(C)(C)OC(=O)N1CCC(Cn2nc(-c3ccc4[nH]ccc4c3)c3c(N)ncnc32)CC1,
> 1,Nc1ncnc2c1c(-c1ccc3[nH]ccc3c1)nn2CCC1CCN(S(=O)(=O)c2cc(Cl)ccc2Cl)CC1,
0.138,CC(C)(C)C(=O)N1CCC(CCn2nc(-c3ccc4[nH]ccc4c3)c3c(N)ncnc32)CC1,
0.0153,CC(=O)N1CCC(CCn2nc(-c3ccc4[nH]cc(C)c4c3)c3c(N)ncnc32)CC1,IC50 [12]: 9.87 µM
> 1,Nc1ncnc2c1c(-c1ccc3[nH]ccc3c1)nn2CCC1CCNCC1,

SMILES,EC50 (TGF-beta receptor type-1 [1]) [µM],also measured
CC(=O)c1nn(CCC2CCN(C(C)=O)CC2)c2ncnc(N)c12,0.485,
